Assay results as given in paper PMC8306930, “A Comparative Analysis of the In Vitro Anticancer Activity of Iridium(III) {η^5-C5Me4R} Complexes with Variable R Groups” (International Journal of Molecular Sciences, 2021).

Columns and labels:
[1] = tested on: A2780 human ovarian cancer cells; assay: MTT viability assay, A2780; assay type: cell-based; settings: A2780, 72 h exposure, mean ± SD
Text: (§1) The rat astrocytoma C6 cell line and murine melanoma B16 cell line were kindly gifted by Dr. L. Harhaji–Trajkovic, Institute for Biological Research “Sinisa Stankovic”—National Institute of Republic of Serbia (IBISS), and from Dr. Sinisa Radulovic (Institute for Oncology and Radiology of Serbia), respectively. Human colorectal (SW620 and HCT116), breast (MCF-7), and ovarian (A2780) cancer cell lines and non-malignant fibroblast cell line (MRC5) were purchased from the American Type Culture Collection (ATCC, Manassas, Virginia, USA). […] For viability assays, cells were seeded in listed densities/well: B16 and C6: 3 × 10^3; SW620: 9 × 10^3; A2780 and HCT116: 5 × 10^3; MCF-7: 8 × 10^3 and MRC5: 7 × 10^3. For flow cytometry, A2780 cells were seeded at 2 × 10^5 density/well in 6-well plates. Peritoneal macrophages were collected from the peritoneal cavity of C57BL/6 mice from the animal facility of IBISS by cavity lavage with ice-cold PBS. […] Macrophages were counted, seeded at 2 × 10^5 cells/well in 96-well plates for viability assay, and then left for 2 h to adhere. Before treatment, non-adherent cells were removed. The handling of animals and protocol for obtaining macrophages is in the agreement with the rules of the European Union and approved by the Institutional Animal Care and Use Committee at IBISS (No. 02-09/16).
(§2) Stock solutions of 1b, 1c, 1d, and 1e were prepared in ethanol at concentration of 20 mM and kept at −20 °C, while 10 mM stock solution of cisplatin was prepared in DMF just before the usage. Desired final concentrations were obtained by dilution in culture medium.
(§3) Cells were treated with various concentrations (up to 50 or 100 µM) of the above-mentioned complexes for 72 h. For the detection of mitochondrial respiration, cells were cultivated in the presence of MTT staining solution (0.5 mg/mL) for approximately 1 h at 37 °C. The dye was then discarded, and the formed formazan crystals (purple) were dissolved in DMSO. For an evaluation of viable attached cells, cells were fixed with 4% PFA for 10 min at room temperature, and subsequently stained for 15 min with 0.02% CV solution. […] The absorbance was measured with an automated microplate reader at 540 nm, with a reference wavelength of 670 nm. The IC50 values were calculated using a four-parameter logistic function and presented as mean ± SD from three independent experiments.

[2] = tested on: MCF-7 human breast cancer cells; assay: MTT viability assay, MCF-7; assay type: cell-based; settings: MCF-7, 72 h exposure, mean ± SD
Text: as §1, §2, §3

[3] = tested on: MRC5 human fibroblast cells; assay: MTT viability assay, MRC5; assay type: cell-based; settings: MRC5, 72 h exposure, mean ± SD
Text: as §1, §2, §3

[4] = tested on: MCF-7 human breast cancer cells; assay: CV viability assay, MCF-7; assay type: cell-based; settings: MCF-7, 72 h exposure, mean ± SD
Text: as §1, §2, §3

[5] = tested on: A2780 human ovarian cancer cells; assay: CV viability assay, A2780; assay type: cell-based; settings: A2780, 72 h exposure, mean ± SD
Text: as §1, §2, §3

[6] = Stability in D2O mixtures by 1H NMR; assay type: physicochemical; settings: DMSO-d6/D2O 2:1, 72 h at 37 °C, 1H NMR, dimethyl sulfone standard
Procedure: Complexes were dissolved in acetone-d6/D2O 2:1 (1b,d), DMSO-d6/D2O 2:1 (2a–d and 3), or methanol-d4/D2O 2:1 (1c) ([Ir] ≈ 10^−3 mol L^−1), then dimethyl sulfone (0.05 mL, 0.164 mmol) was added as internal standard. The mixtures were filtered through a celite pad, and the filtrated solutions were analyzed by ^1H NMR spectroscopy.
The solutions were then stored for 72 h at 37 °C, and new NMR analyses were subsequently performed.

[7] = tested on: MRC5 human fibroblast cells; assay: CV viability assay, MRC5; assay type: cell-based; settings: MRC5, 72 h exposure, mean ± SD
Text: as §1, §2, §3

[8] = Octanol/water partition coefficient, shake-flask method with UV-Vis; settings: 21 °C, mean ± standard deviation
Procedure: (a) Octanol/water partition coefficients (Log Pow). Partition coefficients (Pow; IUPAC: KD partition constant), defined as Pow = corg/caq, where corg and caq are molar concentrations of the selected compound in the organic and aqueous phase, respectively, were determined by the shake-flask method and UV-Vis measurements. Deionized water and 1-octanol were vigorously stirred for 24 h, to enable saturation of both phases, then separated by centrifugation. A stock solution of the selected iridium compound (ca. 2 mg) was prepared by first adding acetone (50 μL, to help solubilization), followed by water-saturated octanol (2.5 mL). The solution was diluted with water-saturated octanol (ca. 1:3 v/v ratio, cIr ≈ 10^−4 M, so that 1.5 ≤ A ≤ 2.0 at λmax) and its UV-Vis spectrum was recorded (A^0org). An aliquot of the solution (Vorg = 1.2 mL) was transferred into a test tube and octanol-saturated water (Vorg = Vaq = 1.2 mL) was added. The mixture was vigorously stirred for 30 min at 21 °C then centrifuged (5000 rpm, 5 min). The UV-Vis spectrum of the organic phase was recorded (A^forg) and the partition coefficient was calculated as Pow = A^forg/(A^0org − A^forg) where A^0org and A^forg are the absorbance in the organic phase before and after partition with the aqueous phase, respectively. The wavelength of the maximum absorption of each compound (ca. 300 nm) was used for UV-Vis quantitation.

[9] = Stability in RPMI-1640 cell culture medium by UV-Vis; assay type: physicochemical; settings: 37 °C, 24 h
[10] = tested on: HCT116 human colorectal carcinoma cells; assay: MTT viability assay, HCT116; assay type: cell-based; settings: HCT116, 72 h exposure, mean ± SD
Text: as §1, §2, §3

C6 rat glioma cells [11] = assay: CV viability assay, C6; assay type: cell-based; settings: C6, 72 h exposure, mean ± SD
Text: as §1, §2, §3

B16 mouse melanoma cells [12] = assay: CV (crystal violet) viability assay, B16; assay type: cell-based; settings: B16, 72 h exposure, mean ± SD
Text: as §1, §2, §3

B16 mouse melanoma cells [13] = assay: MTT viability assay, B16; assay type: cell-based; settings: B16, 72 h exposure, mean ± SD
Text: as §1, §2, §3

C6 rat glioma cells [14] = assay: MTT viability assay, C6; assay type: cell-based; settings: C6, 72 h exposure, mean ± SD
Text: as §1, §2, §3

[15] = tested on: HCT116 human colorectal carcinoma cells; assay: CV viability assay, HCT116; assay type: cell-based; settings: HCT116, 72 h exposure, mean ± SD
Text: as §1, §2, §3

[16] = tested on: SW620 human colorectal adenocarcinoma cells; assay: MTT viability assay, SW620; assay type: cell-based; settings: SW620, 72 h exposure, mean ± SD
Text: as §1, §2, §3

[17] = tested on: SW620 human colorectal adenocarcinoma cells; assay: CV viability assay, SW620; assay type: cell-based; settings: SW620, 72 h exposure, mean ± SD
Text: as §1, §2, §3

A2780 cells [18] = assay: Senescence, FDG assay of beta galactosidase activity, flow cytometry; assay type: cell-based, human; settings: A2780, IC50 doses, 48 h, in comparison to the control
Procedure: (§4) Experiments were carried out in three independent replicates.

A2780 cells [19] = assay: Mitochondrial membrane potential, DiOC6(3) flow cytometry; assay type: cell-based, human; settings: A2780, IC50 doses, 24 h, in comparison with untreated cells
Procedure: as §4

[20] = tested on: primary mouse peritoneal cells; assay: Viability of primary mouse peritoneal cells (macrophages); assay type: cell-based
Text: The rat astrocytoma C6 cell line and murine melanoma B16 cell line were kindly gifted by Dr. L. Harhaji–Trajkovic, Institute for Biological Research “Sinisa Stankovic”—National Institute of Republic of Serbia (IBISS), and from Dr. Sinisa Radulovic (Institute for Oncology and Radiology of Serbia), respectively. Human colorectal (SW620 and HCT116), breast (MCF-7), and ovarian (A2780) cancer cell lines and non-malignant fibroblast cell line (MRC5) were purchased from the American Type Culture Collection (ATCC, Manassas, Virginia, USA). […] For viability assays, cells were seeded in listed densities/well: B16 and C6: 3 × 10^3; SW620: 9 × 10^3; A2780 and HCT116: 5 × 10^3; MCF-7: 8 × 10^3 and MRC5: 7 × 10^3. For flow cytometry, A2780 cells were seeded at 2 × 10^5 density/well in 6-well plates. […] Macrophages were counted, seeded at 2 × 10^5 cells/well in 96-well plates for viability assay, and then left for 2 h to adhere. […]
Cells were treated with various concentrations (up to 50 or 100 µM) of the above-mentioned complexes for 72 h. […] The absorbance was measured with an automated microplate reader at 540 nm, with a reference wavelength of 670 nm. The IC50 values were calculated using a four-parameter logistic function and presented as mean ± SD from three independent experiments.

A2780 cells [21] = assay: Cell proliferation, CFSE flow cytometry; assay type: cell-based, human; settings: A2780, IC50 doses, 72 h of incubation
Procedure: as §4

A2780 cells [22] = assay: ROS/RNS, DHR123 flow cytometry; assay type: cell-based, human; settings: A2780, IC50 doses, 48 h, DHR123, with respect to untreated cultures
Procedure: as §4

A2780 cells [23] = assay: Intracellular nitric oxide, DAF-FM flow cytometry; assay type: cell-based, human; settings: A2780, IC50 doses, 48 h, with respect to untreated cultures
Procedure: as §4

A2780 cells [24] = assay: Autophagosomes, acridine orange flow cytometry; assay type: cell-based, human; settings: A2780, IC50 doses, 48 h, AO
Procedure: as §4

A2780 cells [25] = settings: A2780, IC50 doses, 48 h, AnnV/PI
Procedure: as §4

## CCC[c-]1c(C)c(C)c(C)c1C.[Cl-].[Ir+3].[c-]1ccccc1-c1ccccn1 [Complex 2c, (1-(propyl)-2,3,4,5-tetramethylcyclopentadienyl)(2-phenylpyridine)iridium(III)chloride]
[1]
  IC50: 7.3 ± 0.6 µM
[2]
  IC50: 12 ± 1.3 µM
[3]
  IC50: 3.7 ± 0.2 µM
[4]
  IC50: 17.2 ± 0.1 µM
[5]
  IC50: 7.2 ± 0.8 µM
[6]
  Fraction of unaltered compound: 98%
[7]
  IC50: 2.7 ± 0.1 µM
[8]
  Log Pow: 1.5 ± 0.2
[9]
  Stability in RPMI-1640 cell culture medium: did not change
[10]
  IC50: 8 ± 0.6 µM
C6 rat glioma cells [11]
  IC50: 5.9 ± 0.5 µM
B16 mouse melanoma cells [12]
  IC50: 8 ± 2 µM
B16 mouse melanoma cells [13]
  IC50: 6.7 ± 0.6 µM
C6 rat glioma cells [14]
  IC50: 4 ± 0.3 µM
[15]
  IC50: 13 ± 1.1 µM
[16]
  IC50: 10.4 ± 0.4 µM
[17]
  IC50: 12.4 ± 1.5 µM

## Cc1c(C)c(C)[c-](-c2ccc(F)cc2)c1C.[Cl-].[Ir+3].[c-]1ccccc1-c1ccccn1 [Complex 2d, (1-(4-fluorobenzene)-2,3,4,5-tetramethylcyclopentadienyl)(2-phenylpyridine)iridium(III)chloride]
A2780 cells [18]
  Increase of beta galactosidase activity: 31%
[1]
  IC50: 1.3 ± 0.1 µM
[2]
  IC50: 2.5 ± 0.2 µM
[3]
  IC50: 2.4 ± 0.3 µM
[4]
  IC50: 6.8 ± 0.7 µM
[5]
  IC50: 1.8 ± 0.1 µM
[6]
  Fraction of unaltered compound: 97%
[7]
  IC50: 2.1 ± 0.6 µM
A2780 cells [19]
  Mitochondrial membrane hyperpolarization: 48.6%
[20]
  Effect on viability of primary mouse peritoneal cells: did not affect viability
A2780 cells [21]
  Effect on cell proliferation: inhibition of cell proliferation
[8]
  Log Pow: 1.3 ± 0.2
A2780 cells [22]
  Increase of intracellular levels of H2O2, HOCl and ONOO− (in total): 36.3%
[9]
  Stability in RPMI-1640 cell culture medium: did not change
[10]
  IC50: 1.3 ± 0.3 µM
A2780 cells [23]
  Increase of intracellular level of NO: 38%
A2780 cells [24]
  High percentage of autophagosomes: not recognized
C6 rat glioma cells [11]
  IC50: 2.1 ± 0.1 µM
A2780 cells [25]
  Induction of apoptotic cell death: modest induction
B16 mouse melanoma cells [12]
  IC50: 1.7 ± 0.4 µM
B16 mouse melanoma cells [13]
  IC50: 1.2 ± 0.2 µM
C6 rat glioma cells [14]
  IC50: 2 ± 0.01 µM
[15]
  IC50: 5.3 ± 1.3 µM
[16]
  IC50: 2 ± 0.1 µM
[17]
  IC50: 2 ± 0.2 µM
